Results as given in US8993606B2, “Oral formulations for treating metal overload” (FerroKin BioSciences, Inc., priority 2011, dated 2015).

How the values were obtained:
[1] = test system: patients with transfusional iron overload; assay: Example 11: efficacy study, serum ferritin; assay type: in vivo, human
Experimental: The goal of this experiment was to: 1. evaluate the safety and tolerability based on clinical assessments of two doses (16 and 32 mg/kg/d) of Compound 1 when administered daily for 24 weeks to patients with transfusional iron overload; 2. identify a differential response between dose groups in liver iron concentration determined by magnetic resonance imaging (MRI) after 24 weeks of dosing; and 3. assess the safety and efficacy activity of Compound 1 when administered daily for up to 96 weeks.
This experiment is an open-label, randomized study of two dose levels (16 and 32 mg/kg/d) of Compound 1 administered once daily for 24 weeks to eligible patients with transfusional iron overload requiring chelation therapy, with a dosing extension of 72 additional weeks.
Patients were assigned to one of two strate: “high” or “low” transfusion burden based on the average iron intake of the six transfusion sessions. Patients within each transfusion burden groups were randomized to one of two Compound 1 treatment arms: 16 mg/kg/d (16 mpk) or 32 mg/kg/d (32 mpk). The stratification followed by randomization to treatment arms helps to ensure an equal distribution of patients with “high” and “low” transfusion burdens to the high or low dose of Compound 1. Each treatment arm received one dose of Compound 1 daily for 24 weeks.
At the conclusion of the 24 week dosing period, patients who qualify and consent to continue treatment continued for an additional 72 weeks of Compound 1 dosing.
The inclusion of 25 patients in each treatment group provided a statistical power of 0.80 to detect, within 6 months, an LIC difference (normalized for initial LIC) of 3 mg/g dry weight between the two dose groups as determined by MRI. Baseline characteristics between dose groups were compared using Fisher extract test or Wilcoxon rank sum test as appropriate. The change in baseline to week 12, 24, and 72 values for all pharmacodynamics parameters were analyzed by an ANCOVA model with main effect for treatment group with baselines value for the corresponding parameters and transfusion burdon (iron input) during the study and baseline liver iron concentration as covariates comparing the two active treatment groups. T2* values were natural log transformed and summarized as the geometric mean (the antilog of the mean of the log data) plus or minus the co-efficient of variation (CV) defined as square root of eMSE where MSE is defined as the mean square error and subject to ANCOVA setting the p value as the threshold for statistical significance at 0.05 (confidence level of 95%).

iron = assay: Pharmacodynamics: iron in 24-hour urine; assay type: in vivo, human
Experimental: Urine was collected for 24 hours following administration of Compound 1. […] In other studies, a more sensitive urinary iron assay was employed (LLOQ 10 μg/dL).

[2] = Relative humidity stress (deliquescence, hygroscopicity); assay type: physicochemical

**Q.** What does the source list for COCCOCCOCCOc1cccc(C2=N[C@@](C)(C(=O)O)CS2)c1O [Compound 1, (S)-4,5-Dihydro-2-[2-hydroxy-3-(3,6,9-trioxadecyloxy)phenyl]-4-methyl-4-thiazolecarboxylate magnesium hydroxide]?
**A.** Serum Ferritin Change from Baseline to Week 72, Geometric Mean ([1]; 16 mg/kg/d group): 1.14; Serum Ferritin Change from Baseline to Week 72, Mean ([1]; 16 mg/kg/d group): 233.21; Serum Ferritin Change from Baseline to Week 72, Median ([1]; 16 mg/kg/d group): 231.50; Serum Ferritin Week 72, Geometric Mean ([1]; 16 mg/kg/d group): 2418.49; Serum Ferritin Week 72, Mean ([1]; 16 mg/kg/d group): 2873.93; Serum Ferritin Week 72, Median ([1]; 16 mg/kg/d group): 2544.50; Serum Ferritin Change from Baseline to Week 72, Geometric Mean ([1]; 32 mg/kg/d group): 0.89; Serum Ferritin Change from Baseline to Week 72, Mean ([1]; 32 mg/kg/d group): −150.82; Serum Ferritin Change from Baseline to Week 72, Median ([1]; 32 mg/kg/d group): −436.00; Serum Ferritin Week 72, Geometric Mean ([1]; 32 mg/kg/d group): 2441.03; Serum Ferritin Week 72, Mean ([1]; 32 mg/kg/d group): 3026.82; Serum Ferritin Week 72, Median ([1]; 32 mg/kg/d group): 2396.00; Serum Ferritin Change from Baseline to Week 72, Geometric Mean ([1]; Total): 0.99; Serum Ferritin Change from Baseline to Week 72, Mean ([1]; Total): 22.61; Serum Ferritin Change from Baseline to Week 72, Median ([1]; Total): −56.00; Serum Ferritin Week 72, Geometric Mean ([1]; Total): 2430.83; Serum Ferritin Week 72, Mean ([1]; Total): 2957.77; Serum Ferritin Week 72, Median ([1]; Total): 2398.00; iron in 24 hour urine (iron; all doses, LLOQ of iron approximately 195 μg/dL): no detectable iron; iron in urine, more sensitive assay (iron; other studies, LLOQ 10 μg/dL, no dose-dependent trends): Iron was detected in the urine of all subjects; hygroscopicity [2]: non-hygroscopic; XRPD pattern after RH exposure ([2]; 75% RH for 8 days): remained unchanged; deliquescence ([2]; exposed to 75% RH for 8 days): did not deliquesce
